SMILES strings stand for the structures.

We go through 9 compounds from patent US7398161B2, “Sampling method and sampling device, and logD measuring method and logD measuring system” (Banyu Pharmaceutical Co., Ltd., priority 2004, dated 2008).

For data set [1] the following is noted: J. Med. Chem. 2001, 44, 2490-2497; cited from earlier work.
Data set [2] can be described thus: physchem.
The nature of data set [3]: logD measurement by sampling of octanol/buffer two-layer sample with plug liquid, HPLC and mass spectrometer. The note with it: octanol/buffer solution.

With `c1ccc(-c2ccc(C(c3ccccc3)n3ccnc3)cc2)cc1` (stereo not drawn) [bifonazole], the “logD, Literature value” in data set [1] is 4.77. The logD in data set [2] was determined as 5.2.
In the case of `NC(=O)N1c2ccccc2C=Cc2ccccc21` [Carbamazepine], in data set [1], the “logD, Literature value” is 2.19. The same compound yielded a logD in data set [2] of 1.8.
With `CN(C)CCCN1c2ccccc2Sc2ccc(Cl)cc21` [Chlorpromazine], in data set [2], the logD was determined as 3.5.
Same read-out and setting: to `COCCc1ccc(OCC(O)CNC(C)C)cc1` (stereo not drawn) [Metoprolol] belongs 0.3.
As for `CC(C)(C)NCC(O)c1cc(O)cc(O)c1` (stereo not drawn) [Terbutaline], the “logD, Literature value” in data set [1] is recorded as −1.35. In data set [3], this compound yielded a logD of -1.9.
In the case of `C[C@@H]1C[C@H]2[C@@H]3CCC4=CC(=O)C=C[C@]4(C)[C@@]3(F)[C@@H](O)C[C@]2(C)[C@@]1(O)C(=O)CO` [Dexamethason], the “logD, Literature value” in data set [1] is 1.83. For the same compound, the “logD, Measured value” in data set [3] (average of three measurements (only one measurement for amiodarone)) stood at 1.9.
In data set [2], `C[C@]12CC[C@@H]3c4ccc(O)cc4CC[C@H]3[C@@H]1CC[C@@H]2O` [estradiol] showed a logD of 3.9.
As to `C=CCc1ccccc1OCC(O)CNC(C)C` (stereo not drawn) [Alprenolol], the “logD, Literature value” in data set [1] was 0.97. This compound registered a logD in data set [3] of 1.2.
As for `COc1ccc([C@@H]2Sc3ccccc3N(CCN(C)C)C(=O)[C@@H]2OC(C)=O)cc1` [Diltiazem], the “logD, Literature value” in data set [1] was 2.06. This compound also came in with a logD in data set [2] of 2.3.

The logD is lipophilicity at a set pH, counting ionised and neutral species.
